# Measurements: ChEMBL document CHEMBL3525917, “Species difference in the mechanism of nonlinear pharmacokinetics of E2074, a novel sodium channel inhibitor, in rats, dogs, and monkeys” (Drug Metab Dispos, 2013)
# How the values were obtained:
# [1] = Cmax in wild-type mouse at 3 mg/kg, po; format: ADME, organism-based; design: dose 3 mg/kg, route oral; conditions: in vivo
# [2] = system: Cynomolgus monkey; experiment: Ratio of dose normalized Cmax in cynomolgus monkey at 10 mg/kg, po in presence of ketoconazole to dose normalized Cmax in cynomolgus monkey at 10 mg/kg, po; format: ADME, organism-based, Macaca fascicularis; conditions: in vivo
# [3] = AUC in cynomolgus monkey at 1 mg/kg, iv in presence of ketoconazole; format: ADME, organism-based, Macaca fascicularis; design: dose 1 mg/kg, route intravenous; conditions: plasma
# [4] = Ratio of drug level in blood to plasma in cynomolgus monkey at 0.25 uM after 10 mins by equilibrium dialysis technique; format: ADME, Macaca fascicularis; conditions: blood and plasma
# [5] = AUC in beagle dog at 10 mg/kg, po; format: ADME, organism-based, Canis lupus familiaris; design: dose 10 mg/kg, route oral; conditions: plasma
# [6] = Tmax in beagle dog at 10 mg/kg, po; format: ADME, organism-based, Canis lupus familiaris; design: dose 10 mg/kg, route oral; conditions: in vivo
# [7] = Half life in beagle dog at 3 mg/kg, po; format: ADME, organism-based, Canis lupus familiaris; design: dose 3 mg/kg, route oral; conditions: in vivo
# [8] = Tmax in MDR1A/1B knock-out mouse at 3 mg/kg, po; format: ADME, organism-based; design: dose 3 mg/kg, route oral; conditions: in vivo
# [9] = Half life in Sprague-Dawley rat at 3 mg/kg, po; format: ADME, organism-based; design: dose 3 mg/kg, route oral; conditions: in vivo
# [10] = Half life in cynomolgus monkey at 10 mg/kg, po in presence of ketoconazole; format: ADME, organism-based, Macaca fascicularis; design: dose 10 mg/kg, route oral; conditions: in vivo
# [11] = Tmax in Sprague-Dawley rat at 3 mg/kg, po; format: ADME, organism-based; design: dose 3 mg/kg, route oral; conditions: in vivo
# [12] = Fraction unbound in cynomolgus monkey plasma at 0.25 uM by equilibrium dialysis technique; format: ADME, cell-free, Macaca fascicularis
# [13] = system: Cynomolgus monkey; experiment: Ratio of dose normalized AUC in cynomolgus monkey at 3 mg/kg, po in presence of ketoconazole to dose normalized AUC in cynomolgus monkey at 3 mg/kg, po; format: ADME, organism-based, Macaca fascicularis; conditions: in vivo
# [14] = Fraction unbound in beagle dog plasma at 0.25 uM by equilibrium dialysis technique; format: ADME, cell-free, Canis lupus familiaris
# [15] = AUC in wild-type mouse at 3 mg/kg, po; format: ADME, organism-based; design: dose 3 mg/kg, route oral; conditions: plasma
# [16] = Solubility of the compound in phosphate buffered saline at pH 7 to 7.2; format: physicochemical
# [17] = Tmax in cynomolgus monkey at 10 mg/kg, po in presence of ketoconazole; format: ADME, organism-based, Macaca fascicularis; design: dose 10 mg/kg, route oral; conditions: in vivo
# [18] = Ratio of drug level in brain to plasma in wild-type mouse at 3 mg/kg, po; format: ADME, organism-based; design: dose 3 mg/kg, route oral; conditions: brain and plasma
# [19] = Cmax in Sprague-Dawley rat at 30 mg/kg, po; format: ADME, organism-based; design: dose 30 mg/kg, route oral; conditions: in vivo
# [20] = Half life in cynomolgus monkey at 1 mg/kg, iv; format: ADME, organism-based, Macaca fascicularis; design: dose 1 mg/kg, route intravenous; conditions: in vivo
# [21] = Volume of distribution at steady state in beagle dog at 1 mg/kg, iv; format: ADME, organism-based, Canis lupus familiaris; design: dose 1 mg/kg, route intravenous; conditions: in vivo, read-out: Vdss
# [22] = Oral bioavailability in cynomolgus monkey at 3 mg/kg; format: ADME, organism-based, Macaca fascicularis; conditions: in vivo
# [23] = AUC in Sprague-Dawley rat at 3 mg/kg, po; format: ADME, organism-based; design: dose 3 mg/kg, route oral; conditions: plasma
# [24] = Half life in Sprague-Dawley rat at 10 mg/kg, po; format: ADME, organism-based; design: dose 10 mg/kg, route oral; conditions: in vivo
# [25] = AUC in Sprague-Dawley rat at 1 mg/kg, iv; format: ADME, organism-based; design: dose 1 mg/kg, route intravenous; conditions: plasma
# [26] = species: Rattus norvegicus; experiment: Hepatic blood clearance in Sprague-Dawley rat; format: ADME, organism-based; conditions: in vivo
# [27] = Tmax in Sprague-Dawley rat at 30 mg/kg, po; format: ADME, organism-based; design: dose 30 mg/kg, route oral; conditions: in vivo
# [28] = Cmax in cynomolgus monkey at 3 mg/kg, po; format: ADME, organism-based, Macaca fascicularis; design: dose 3 mg/kg, route oral; conditions: in vivo
# [29] = AUC in cynomolgus monkey at 10 mg/kg, po in presence of ketoconazole; format: ADME, organism-based, Macaca fascicularis; design: dose 10 mg/kg, route oral; conditions: plasma
# [30] = Clearance in beagle dog at 1 mg/kg, iv; format: ADME, organism-based, Canis lupus familiaris; design: dose 1 mg/kg, route intravenous; conditions: in vivo
# [31] = AUC in beagle dog at 3 mg/kg, po; format: ADME, organism-based, Canis lupus familiaris; design: dose 3 mg/kg, route oral; conditions: plasma
# [32] = AUC in cynomolgus monkey at 1 mg/kg, iv; format: ADME, organism-based, Macaca fascicularis; design: dose 1 mg/kg, route intravenous; conditions: plasma
# [33] = Tmax in cynomolgus monkey at 10 mg/kg, po; format: ADME, organism-based, Macaca fascicularis; design: dose 10 mg/kg, route oral; conditions: in vivo
# [34] = Cmax in cynomolgus monkey at 10 mg/kg, po in presence of ketoconazole; format: ADME, organism-based, Macaca fascicularis; design: dose 10 mg/kg, route oral; conditions: in vivo
# [35] = system: Cynomolgus monkey; experiment: Hepatic blood clearance in cynomolgus monkey; format: ADME, organism-based, Macaca fascicularis; conditions: in vivo
# [36] = (§1) Drug metabolism in beagle dog liver microsomes after 30 mins by Michaelis-Menten plot analysis; format: ADME, Canis lupus familiaris; conditions: beagle, liver microsomes
# [37] = system: Liver microsome; experiment: as §1; format: ADME, Canis lupus familiaris; conditions: microsomes, 0.5 h
# [38] = AUC in cynomolgus monkey at 3 mg/kg, po; format: ADME, organism-based, Macaca fascicularis; design: dose 3 mg/kg, route oral; conditions: plasma
# [39] = biological target: T1, MDR1A (ABCB1, P-glycoprotein) (Mus musculus, UniProt P21447); experiment: Activity of mouse MDR1A expressed in pig LLC-PK1 cells assessed as permeability from apical to basolateral side at 1 uM after 2 hrs; format: ADME, cell-based; conditions: read-out: permeability
# T1 sequence (P21447 whole entry): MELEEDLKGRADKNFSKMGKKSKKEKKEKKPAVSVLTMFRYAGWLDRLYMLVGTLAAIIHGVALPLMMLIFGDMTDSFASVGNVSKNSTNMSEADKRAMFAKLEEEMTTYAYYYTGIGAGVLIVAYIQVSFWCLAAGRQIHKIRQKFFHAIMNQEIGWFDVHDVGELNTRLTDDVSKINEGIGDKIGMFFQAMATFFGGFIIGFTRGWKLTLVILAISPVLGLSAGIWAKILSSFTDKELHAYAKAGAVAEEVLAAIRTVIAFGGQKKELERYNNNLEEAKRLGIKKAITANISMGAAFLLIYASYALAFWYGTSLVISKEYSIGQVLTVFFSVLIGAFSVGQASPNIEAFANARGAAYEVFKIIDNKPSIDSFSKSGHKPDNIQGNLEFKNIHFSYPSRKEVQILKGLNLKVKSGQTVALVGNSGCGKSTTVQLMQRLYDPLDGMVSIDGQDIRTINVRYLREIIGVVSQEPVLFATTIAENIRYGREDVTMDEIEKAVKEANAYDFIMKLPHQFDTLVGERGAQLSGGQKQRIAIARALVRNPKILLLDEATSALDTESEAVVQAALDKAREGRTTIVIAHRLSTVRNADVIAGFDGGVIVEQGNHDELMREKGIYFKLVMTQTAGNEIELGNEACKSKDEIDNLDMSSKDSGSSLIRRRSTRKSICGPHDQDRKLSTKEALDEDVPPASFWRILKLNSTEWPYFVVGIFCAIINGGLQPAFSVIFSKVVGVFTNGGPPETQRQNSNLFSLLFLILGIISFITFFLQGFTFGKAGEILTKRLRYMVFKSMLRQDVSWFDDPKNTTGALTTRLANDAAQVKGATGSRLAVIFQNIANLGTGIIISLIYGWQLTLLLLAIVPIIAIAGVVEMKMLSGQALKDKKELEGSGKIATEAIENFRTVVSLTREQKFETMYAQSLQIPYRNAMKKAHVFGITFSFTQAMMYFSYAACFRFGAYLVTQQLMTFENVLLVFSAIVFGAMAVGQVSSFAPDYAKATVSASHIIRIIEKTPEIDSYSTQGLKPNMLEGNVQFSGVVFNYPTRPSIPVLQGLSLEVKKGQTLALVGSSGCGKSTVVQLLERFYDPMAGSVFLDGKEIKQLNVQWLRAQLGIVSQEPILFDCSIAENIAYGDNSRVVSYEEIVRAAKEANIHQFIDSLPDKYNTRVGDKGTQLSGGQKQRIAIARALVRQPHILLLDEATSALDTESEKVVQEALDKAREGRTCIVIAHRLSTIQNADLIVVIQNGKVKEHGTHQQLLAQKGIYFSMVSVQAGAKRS
# [40] = Fraction unbound in Sprague-Dawley rat plasma at 0.25 uM by equilibrium dialysis technique; format: ADME, cell-free
# [41] = biological target: T1, MDR1A (ABCB1, P-glycoprotein); experiment: Activity of mouse MDR1A expressed in pig LLC-PK1 cells assessed as permeability from basolateral to apical side at 1 uM after 2 hrs; format: ADME, cell-based; conditions: read-out: permeability
# [42] = Tmax in Sprague-Dawley rat at 10 mg/kg, po; format: ADME, organism-based; design: dose 10 mg/kg, route oral; conditions: in vivo
# [43] = Clearance in Sprague-Dawley rat at 1 mg/kg, iv; format: ADME, organism-based; design: dose 1 mg/kg, route intravenous; conditions: in vivo
# [44] = Cmax in Sprague-Dawley rat at 3 mg/kg, po; format: ADME, organism-based; design: dose 3 mg/kg, route oral; conditions: in vivo
# [45] = Cmax in cynomolgus monkey at 10 mg/kg, po; format: ADME, organism-based, Macaca fascicularis; design: dose 10 mg/kg, route oral; conditions: in vivo
# [46] = system: Cynomolgus monkey; experiment: Unbound intrinsic clearance in cynomolgus monkey; format: ADME, organism-based, Macaca fascicularis; conditions: in vivo
# [47] = AUC in beagle dog at 1 mg/kg, iv; format: ADME, organism-based, Canis lupus familiaris; design: dose 1 mg/kg, route intravenous; conditions: plasma
# [48] = species: Canis familiaris; experiment: Unbound intrinsic clearance in beagle dog; format: ADME, organism-based, Canis lupus familiaris; conditions: in vivo
# [49] = Cmax in beagle dog at 10 mg/kg, po; format: ADME, organism-based, Canis lupus familiaris; design: dose 10 mg/kg, route oral; conditions: in vivo
# [50] = Half life in Sprague-Dawley rat at 1 mg/kg, iv; format: ADME, organism-based; design: dose 1 mg/kg, route intravenous; conditions: in vivo
# [51] = Cmax in MDR1A/1B knock-out mouse at 3 mg/kg, po; format: ADME, organism-based; design: dose 3 mg/kg, route oral; conditions: in vivo
# [52] = Oral bioavailability in beagle dog at 10 mg/kg; format: ADME, organism-based, Canis lupus familiaris; conditions: in vivo
# [53] = Half life in Sprague-Dawley rat at 30 mg/kg, po; format: ADME, organism-based; design: dose 30 mg/kg, route oral; conditions: in vivo
# [54] = Ratio of drug level in blood to plasma in Sprague-Dawley rat at 0.25 uM after 10 mins by equilibrium dialysis technique; format: ADME; conditions: blood and plasma
structure (smiles),measurement,setting,value
Cc1nn(C[C@H](F)CN2C3CCC2CC(OCc2cccc(F)c2)C3)c(=O)n1C (some centres undefined),Cmax,[1],110 ng/mL
same,Ratio,[2],4.5
same,AUC,[3],820 ng·h/mL
same,"blood plasma ratio at 10 min, 0.25 µM",[4],1.01
same,AUC,[5],2730 ng·h/mL
same,Tmax,[6],30 min
same,half-life,[7],54.6 min
same,Tmax,[8],15 min
same,half-life,[9],30 min
same,half-life,[10],164 min
same,Tmax,[11],15 min
same,fraction unbound at 0.25 µM,[12],0.676
same,Ratio,[13],1
same,fraction unbound at 0.25 µM,[14],0.601
same,AUC,[15],230 ng·h/mL
same,solubility,[16],> 2000 µg/mL
same,Tmax,[17],120 min
same,Kp,[18],2.4
same,Cmax,[19],1360 ng/mL
same,half-life,[20],116 min
same,Vd,[21],1.84 L/kg
same,bioavailability,[22],7.8%
same,AUC,[23],20 ng·h/mL
same,half-life,[24],34.2 min
same,AUC,[25],310 ng·h/mL
same,CLH,[26],53.2 mL/min/kg
same,Tmax,[27],15 min
same,Cmax,[28],40 ng/mL
same,AUC,[29],7090 ng·h/mL
same,clearance,[30],28.3 mL/min/kg
same,AUC,[31],20 ng·h/mL
same,AUC,[32],700 ng·h/mL
same,Tmax,[33],60 min
same,Cmax,[34],1520 ng/mL
same,CLH,[35],33 mL/min/kg
same,Km at 0.5 h,[36],0.41 µM
same,Vmax,[37],0.07 nmol/min/mg
same,AUC,[38],180 ng·h/mL
same,"Papp A→B at 2 h, 1 µM",[39],9.67 ×10⁻⁶ cm/s
same,fraction unbound at 0.25 µM,[40],0.675
same,"Papp B→A at 2 h, 1 µM",[41],30.4 ×10⁻⁶ cm/s
same,Tmax,[42],15 min
same,clearance,[43],53.5 mL/min/kg
same,Cmax,[44],20 ng/mL
same,Cmax,[45],470 ng/mL
same,CL free,[46],84 µL/min/mg
same,AUC,[47],620 ng·h/mL
same,CL free,[48],208 µL/min/mg
same,Cmax,[49],1070 ng/mL
same,half-life,[50],51 min
same,Cmax,[51],100 ng/mL
same,bioavailability,[52],43.7%
same,half-life,[53],81.6 min
same,"blood plasma ratio at 10 min, 0.25 µM",[54],0.89
